Where a name gives a salt, the structure may show the parent alone.
Key:
[1] = target: T1, Human vitronectin receptor (αv β3) (Homo sapiens, UniProt P05106+P06756); assay: Solid Phase Receptor Assay, purified αv β3 (vitronectin receptor) competition with biotinylated vitronectin; assay type: binding; details: 1 nM biotinylated vitronectin, 2 h competition, room temperature, R = H, read-out: VnR/IC50
T1 construct: purified from human placenta; from tissue; host or cells: human placenta
Description: Human vitronectin receptor(αv β3) was purified from human placenta as previously described [Pytela et al., Methods in Enzymology, 144:475-489 (1987)]. Human vitronectin was purified from fresh frozen plasma as previously described [Yatohgo et al., Cell Structure and Function, 13:281-292 (1988)]. Biotinylated human vitronectin was prepared by coupling NHS-biotin from Pierce Chemical Company (Rockford, Ill.) to purified vitronectin as previously described [Charo et al., J. Biol. Chem., 266(3):1415-1421 (1991)]. Assay buffer, OPD substrate tablets, and RIA grade BSA were obtained from Sigma (St. Louis, Mo.). Anti-biotin antibody was obtained from Calbiochem (La Jolla, Calif.). GRGDSP peptide was purchased from Bachem (Torrance, Calif.). Linbro microtiter plates were obtained from Flow Labs (McLean, Va.). ADP reagent was obtained from Sigma (St. Louis, Mo.).
This assay was essentially the same as previously reported [Niiya et al., Blood, 70:475-483 (1987)]. The purified human vitronectin receptor (αv β3) was diluted from stock solutions to 1.0 μg/mL in Tris-buffered saline containing 1.0 mM Ca^++, Mg^++, and Mn^++, pH 7.4 (TBS^+++). The diluted receptor was immediately transferred to Linbro microtiter plates at 100 μL/well (100 ng receptor/well). The plates were sealed and incubated overnight at 4° C. to allow the receptor to bind to the wells. All remaining steps were at room temperature. The assay plates were emptied and 200 μL of 1% RIA grade BSA in TBS^+++ (TBS^+++ /BSA) were added to block exposed plastic surfaces. Following a 2 hour incubation, the assay plates were washed with TBS^+++ using a 96 well plate washer. Logarithmic serial dilution of the test compound and controls were made starting at a stock concentration of 2 mM and using 2 nM biotinylated vitronectin in TBS^+++ /BSA as the diluent. This premixing of labeled ligand with test (or control) ligand, and subsequent transfer of 50 μL aliquots to the assay plate was carried out with a CETUS Propette robot; the final concentration of the labeled ligand was 1 nM and the highest concentration of test compound was 1.0×10^-4 M. The competition occurred for two hours after which all wells were washed with a plate washer as before. Affinity purified horseradish peroxidase labeled goat anti-biotin antibody was diluted 1:3000 in TBS^+++ /BSA and 125 μL were added to each well. After 30 minutes, the plates were washed and incubated with OPD/H2 O2 substrate in 100 mM/L Citrate buffer, pH 5.0. The plate was read with a microtiter plate reader at a wavelength of 450 nm and when the maximum-binding control wells reached an absorbance of about 1.0, the final A450 were recorded for analysis. The data were analyzed using a macro written for use with the EXCEL™ spreadsheet program. The mean, standard deviation, and % CV were determined for duplicate concentrations. The mean A450 values were normalized to the mean of four maximum-binding controls (no competitor added)(B-MAX). The normalized values were subjected to a four parameter curve fit algorithm [Rodbard et al., Int. Atomic Energy.Agency, Vienna, pp 469 (1977)], plotted on a semi-log scale, and the computed IC50 and corresponding R^2 was reported. GRGDSP, a peptide fragment of fibrinogen, was included on each plate as a positive control.

osteoclastic activity [2] = details: cited from earlier work
osteoclastic activity [3] = details: cited from earlier work; remark: listed apart in the source

Row | Compound | IC50 [1] [nM] | inhibition of osteoclastic activity in vitro (osteoclastic activity [2]) | inhibition of osteoclastic activity in vivo (osteoclastic activity [3])
1 | N=C(N)NCCCC(=O)NCCC(=O)NC(CC(=O)O)c1cccnc1 (racemic) [Example 5, (±) β-[[3-[[4-[(aminoiminomethyl)amino]-1-oxobutyl]amino]-1-oxopropyl]amino]-3-pyridinepropanoic acid, bistrifluoroacetate salt] | 706 | – | –
2 | echistatin | – | potent inhibitors | potent inhibitors

More lines, main results first:

Row | IC50 [1] [nM] | Compound | inhibition of osteoclastic activity in vitro (osteoclastic activity [2]) | inhibition of osteoclastic activity in vivo (osteoclastic activity [3])
3 | 23.1 | N=C(N)NCCCC(=O)NCC(=O)NC(CC(=O)O)c1cccnc1 (racemic) [Example 3, (±) β-[[2-[[4-[(aminoiminomethyl)amino]-1-oxobutyl]amino]-1-oxoethyl]amino]-3-pyridinepropanoic acid, bistrifluoroacetate salt] | – | –
4 | 460 | N=C(N)NCCCCCC(=O)NCC(=O)NC(CC(=O)O)c1cccnc1 (racemic) [Example 4, (±) β-[[2-[[6-[(aminoiminomethyl)amino]-1-oxohexyl]amino]-1-oxoethyl]amino]-3-pyridinepropanoic acid, bistrifluoroacetate salt] | – | –
5 | 31.6 | N=C(N)NCC(CC(=O)NCC(=O)NC(CC(=O)O)c1cccnc1)c1ccccc1 (racemic) [Example 6, (±) β-[[2-[[4-[(aminoiminomethyl, amino]-1-oxo-3-phenylbutyl]amino]-1-oxoethyl]amino]-3-pyridinepropanoic acid, bistrifluoroacetate salt] | – | –
6 | 9.4 | N=C(N)NCCCCC(=O)NCC(=O)NC(CC(=O)O)c1cccnc1 (stereo not drawn) [Example 1, β-[[2-[[5-[(aminoiminomethyl]amino]-1-oxopentyl]amino]-1-oxoethyl]amino]-3-pyridinepropanoic acid, bistrifluoroacetate salt] | – | –

— patent US5639765A, “Guanidinoalkyl glycine β-amino acids useful for inhibiting bone loss” (G. D. Searle & Co., priority 1995, dated 1997)
